# Measured values from patent US20240308968A1, “FUNGICIDAL SUBSTITUTED HETEROCYCLES” (FMC Corporation, priority 2021, published 2024).
# Assays:
# Assay type in all cases: in vivo
# [1] = tested on: Blumeria graminis f. sp. Tritici; experiment: Test C: preventive spray on wheat seedlings, wheat powdery mildew disease rating; settings: 100 = 100% disease control, 0 = no control; for pest or weed control at 250 ppm / pest or weed control at 50 ppm: Blumeria graminis, 192 h
# From the text: (§1) General protocol for preparing test suspensions for Tests A-F: the test compounds were first dissolved in acetone in an amount equal to 3% of the final volume and then suspended at the desired concentration (in ppm) in acetone and purified water (50/50 mix by volume) containing 50 to 250 ppm of the surfactant PEG400 (polyhydric alcohol esters). The resulting test suspensions were then used in Tests A-F.
# The test suspension was sprayed to the point of run-off on wheat seedlings. The following day the seedlings were inoculated with a spore dust of Blumeria graminis f. sp. Tritici, (also known as Erysiphe graminis f. sp. Tritici, the causal agent of wheat powdery mildew) and incubated in a growth chamber at 20° C. for 8 days, after which time visual disease ratings were made.
# (§2) The test suspension was sprayed to the point of run-off on tomato seedlings. The following day the seedlings were inoculated with a spore suspension of Alternaria solani (the causal agent of tomato early blight) and incubated in a saturated atmosphere at 27° C. for 48 h, and then moved to a growth chamber at 20° C. for 3 days, after which time visual disease ratings were made. A rating of 100 indicates 100% disease control and a rating of 0 indicates no disease control (relative to the controls). A dash (-) indicates the compound was not tested.
# [2] = tested on: Puccinia recondita f. sp. Tritici; experiment: Test B: preventive spray on wheat seedlings, wheat leaf rust disease rating; settings: 100 = 100% disease control, 0 = no control; for pest or weed control at 250 ppm / pest or weed control at 50 ppm: Puccinia recondita, 192 h
# From the text: as §1
# The test solution was sprayed to the point of run-off on wheat seedlings. The following day the seedlings were inoculated with a spore suspension of Puccinia recondita f. sp. Tritici (the causal agent of wheat leaf rust) and incubated in a saturated atmosphere at 20° C. for 24 h, and then moved to a growth chamber at 20° C. for 7 days, after which time disease ratings were made.
# as §2
# Phakopsora pachyrhizi = experiment: Test D: preventive spray on soybean seedlings, Asian soybean rust disease rating; settings: 100 = 100% disease control, 0 = no control; for pest or weed control at 250 ppm / pest or weed control at 50 ppm: Phakopsora pachyrhizi, 216 h
# From the text: as §1
# The test solution was sprayed to the point of run-off on soybean seedlings. The following day the seedlings were inoculated with a spore suspension of Phakopsora pachyrhizi (the causal agent of Asian soybean rust) and incubated in a saturated atmosphere at 22° C. for 24 h and then moved to a growth chamber at 22° C. for 8 days, after which time visual disease ratings were made.
# as §2
# Alternaria solani = experiment: Test F: preventive spray on tomato seedlings, tomato early blight disease rating; settings: 100 = 100% disease control, 0 = no control; for pest or weed control at 250 ppm / pest or weed control at 50 ppm: Alternaria solani, 120 h
# From the text: as §1, §2
# Zymoseptoria tritici = experiment: Test A: preventive spray on wheat seedlings, wheat leaf blotch disease rating; settings: 100 = 100% disease control, 0 = no control; for pest or weed control at 250 ppm / pest or weed control at 50 ppm: Zymoseptoria tritici, 456 h
# From the text: as §1
# The test solution was sprayed to the point of run-off on wheat seedlings. The following day the seedlings were inoculated with a spore suspension of Zymoseptoria tritici (the causal agent of wheat leaf blotch) and incubated in a saturated atmosphere at 24° C. for 48 h, and then moved to a growth chamber at 20° C. for 17 days, after which time disease ratings were made. […]
# Botrytis cinerea = experiment: Test E: preventive spray on tomato seedlings, tomato Botrytis disease rating; settings: 100 = 100% disease control, 0 = no control; for pest or weed control at 250 ppm / pest or weed control at 50 ppm: Botrytis cinerea, 120 h
# From the text: as §1
# The test suspension was sprayed to the point of run-off on tomato seedlings. The following day the seedlings were inoculated with a spore suspension of Botrytis cinerea (the causal agent of tomato Botrytis) and incubated in a saturated atmosphere at 20° C. for 48 h, and then moved to a growth chamber at 24° C. for 3 days, after which time visual disease ratings were made.
# as §2
smiles,measurement,setting,value
COC(=O)c1nn(-c2cc(OC)cc(OC)c2)c(-c2ccc(F)cc2F)c(C)c1=O [Compound 24],Test C disease control rating,[1]; 50 ppm,0%
same,Test B disease control rating,[2]; 50 ppm,0%
same,Test D disease control rating,Phakopsora pachyrhizi; 50 ppm,0%
same,Test F disease control rating,Alternaria solani; 50 ppm,0%
same,Test A disease control rating,Zymoseptoria tritici; 50 ppm,8%
same,Test E disease control rating,Botrytis cinerea; 50 ppm,0%
COc1cc(OC)cc(-n2nc(CCl)c(=O)c(C)c2-c2ccc(F)cc2F)c1 [Compound 25],Test C disease control rating,[1]; 50 ppm,43%
same,Test B disease control rating,[2]; 50 ppm,0%
same,Test D disease control rating,Phakopsora pachyrhizi; 50 ppm,75%
same,Test F disease control rating,Alternaria solani; 50 ppm,0%
same,Test A disease control rating,Zymoseptoria tritici; 50 ppm,18%
same,Test E disease control rating,Botrytis cinerea; 50 ppm,34%
COc1cc(OC)cc(-n2nc(CF)c(=O)c(C)c2-c2ccc(F)cc2F)c1 [Compound 26],Test C disease control rating,[1]; 50 ppm,98%
same,Test B disease control rating,[2]; 50 ppm,100%
same,Test D disease control rating,Phakopsora pachyrhizi; 50 ppm,99%
same,Test F disease control rating,Alternaria solani; 50 ppm,99%
same,Test A disease control rating,Zymoseptoria tritici; 50 ppm,100%
same,Test E disease control rating,Botrytis cinerea; 50 ppm,98%
"CCOC(=O)c1nn(-c2cc(OC)cc(OC)c2)c(-c2ccc(F)cc2F)c(C)c1=O [Compound 28, ethyl 6-(2,4-difluorophenyl)-1-(3,5-dimethoxyphenyl)-1,4-dihydro-5-methyl-4-oxo-3-pyridazinecarboxylate]",pest or weed control at 250 ppm,[1]; 250 ppm,43%
same,pest or weed control at 250 ppm,[2]; 250 ppm,83%
same,pest or weed control at 250 ppm,Phakopsora pachyrhizi; 250 ppm,0%
same,pest or weed control at 250 ppm,Alternaria solani; 250 ppm,0%
same,pest or weed control at 250 ppm,Zymoseptoria tritici; 250 ppm,0%
same,pest or weed control at 250 ppm,Botrytis cinerea; 250 ppm,31%
"COc1cc(OC)c(Cl)c(-n2nc(CO)c(=O)c(C)c2-c2ccc(F)cc2F)c1 [Compound 30, 1-(2-chloro-3,5-dimethoxyphenyl)-6-(2,4-difluorophenyl)-3-(hydroxymethyl)-5-methyl-4(1H)-pyridazinone]",pest or weed control at 50 ppm,[1]; 50 ppm,98%
same,pest or weed control at 50 ppm,[2]; 50 ppm,100%
same,pest or weed control at 50 ppm,Phakopsora pachyrhizi; 50 ppm,92%
same,pest or weed control at 50 ppm,Alternaria solani; 50 ppm,99%
same,pest or weed control at 50 ppm,Zymoseptoria tritici; 50 ppm,63%
same,pest or weed control at 50 ppm,Botrytis cinerea; 50 ppm,94%
COc1cc(OC)cc(-n2nc(CC#N)c(=O)c(C)c2-c2ccc(F)cc2F)c1 [Compound 31],Test C disease control rating,[1]; 50 ppm,0%
same,Test B disease control rating,[2]; 50 ppm,0%
same,Test D disease control rating,Phakopsora pachyrhizi; 50 ppm,0%
same,Test F disease control rating,Alternaria solani; 50 ppm,0%
same,Test A disease control rating,Zymoseptoria tritici; 50 ppm,61%
same,Test E disease control rating,Botrytis cinerea; 50 ppm,9%
"COc1cc(-n2nc(CO)c(=O)c(C)c2-c2ccc(F)cc2F)cc(OC)c1Cl [Compound 32, 1-(4-chloro-3,5-dimethoxyphenyl)-6-(2,4-difluorophenyl)-3-(hydroxymethyl)-5-methyl-4(1H)-pyridazinone]",pest or weed control at 50 ppm,[1]; 50 ppm,0%
same,pest or weed control at 50 ppm,[2]; 50 ppm,0%
same,pest or weed control at 50 ppm,Phakopsora pachyrhizi; 50 ppm,25%
same,pest or weed control at 50 ppm,Alternaria solani; 50 ppm,0%
same,pest or weed control at 50 ppm,Zymoseptoria tritici; 50 ppm,0%
same,pest or weed control at 50 ppm,Botrytis cinerea; 50 ppm,0%
"COc1cc(OC)c(Cl)c(-n2nc(C)c(=O)c(C)c2-c2ccc(F)cc2F)c1 [Compound 33, 1-(2-chloro-3,5-dimethoxyphenyl)-6-(2,4-difluorophenyl)-3,5-dimethyl-4(1H)-pyridazinone]",pest or weed control at 50 ppm,[1]; 50 ppm,100%
same,pest or weed control at 50 ppm,[2]; 50 ppm,100%
same,pest or weed control at 50 ppm,Phakopsora pachyrhizi; 50 ppm,100%
same,pest or weed control at 50 ppm,Alternaria solani; 50 ppm,94%
same,pest or weed control at 50 ppm,Zymoseptoria tritici; 50 ppm,100%
same,pest or weed control at 50 ppm,Botrytis cinerea; 50 ppm,98%
"COc1cc(OC)cc(-n2c(-c3ccc(F)cc3Cl)cc(=O)n(C)c2=O)c1 [Compound 34, 6-(2-chloro-4-fluorophenyl)-1-(3,5-dimethoxyphenyl)-3-methyl-2,4(1H,3H)-pyrimidinedione]",pest or weed control at 250 ppm,[1]; 250 ppm,0%
same,pest or weed control at 250 ppm,[2]; 250 ppm,86%
same,pest or weed control at 250 ppm,Phakopsora pachyrhizi; 250 ppm,64%
same,pest or weed control at 250 ppm,Alternaria solani; 250 ppm,0%
same,pest or weed control at 250 ppm,Zymoseptoria tritici; 250 ppm,25%
same,pest or weed control at 250 ppm,Botrytis cinerea; 250 ppm,63%
"COc1cc(OC)c(Cl)c(-n2c(-c3ccc(F)cc3Cl)c(Cl)c(=O)n(C)c2=O)c1 [Compound 35, 5-chloro-1-(2-chloro-3,5-dimethoxyphenyl)-6-(2-chloro-4-fluorophenyl)-3-methyl-2,4(1H,3H)-pyrimidinedione]",pest or weed control at 50 ppm,[1]; 50 ppm,98%
same,pest or weed control at 50 ppm,[2]; 50 ppm,100%
same,pest or weed control at 50 ppm,Phakopsora pachyrhizi; 50 ppm,91%
same,pest or weed control at 50 ppm,Alternaria solani; 50 ppm,0%
same,pest or weed control at 50 ppm,Zymoseptoria tritici; 50 ppm,100%
same,pest or weed control at 50 ppm,Botrytis cinerea; 50 ppm,94%
"COc1cc(OC)c(Cl)c(-n2c(-c3ccc(F)cc3Cl)cc(=O)n(C)c2=O)c1 [Compound 36, 1-(2-chloro-3,5-dimethoxyphenyl)-6-(2-chloro-4-fluorophenyl)-3-methyl-2,4(1H,3H)-pyrimidinedione]",pest or weed control at 50 ppm,[1]; 50 ppm,92%
same,pest or weed control at 50 ppm,[2]; 50 ppm,100%
same,pest or weed control at 50 ppm,Phakopsora pachyrhizi; 50 ppm,89%
same,pest or weed control at 50 ppm,Alternaria solani; 50 ppm,0%
same,pest or weed control at 50 ppm,Zymoseptoria tritici; 50 ppm,95%
same,pest or weed control at 50 ppm,Botrytis cinerea; 50 ppm,88%
"COc1cc(OC)c(Cl)c(-n2c(-c3ccc(F)cc3Cl)c(C)c(=O)n(C)c2=O)c1 [Compound 37, 1-(2-chloro-3,5-dimethoxyphenyl)-6-(2-chloro-4-fluorophenyl)-3,5-dimethyl-2,4(1H,3H)-pyrimidinedione]",pest or weed control at 50 ppm,[1]; 50 ppm,98%
same,pest or weed control at 50 ppm,[2]; 50 ppm,100%
same,pest or weed control at 50 ppm,Phakopsora pachyrhizi; 50 ppm,77%
same,pest or weed control at 50 ppm,Alternaria solani; 50 ppm,53%
same,pest or weed control at 50 ppm,Zymoseptoria tritici; 50 ppm,100%
same,pest or weed control at 50 ppm,Botrytis cinerea; 50 ppm,95%
"COc1cc(OC)cc(-n2c(-c3ccc(F)cc3Cl)c(Cl)c(=O)n(C)c2=O)c1 [Compound 38, 5-chloro-6-(2-chloro-4-fluorophenyl)-1-(3,5-dimethoxyphenyl)-3-methyl-2,4(1H,3H)-pyrimidinedione]",pest or weed control at 50 ppm,[1]; 50 ppm,0%
same,pest or weed control at 50 ppm,[2]; 50 ppm,96%
same,pest or weed control at 50 ppm,Phakopsora pachyrhizi; 50 ppm,0%
same,pest or weed control at 50 ppm,Alternaria solani; 50 ppm,0%
same,pest or weed control at 50 ppm,Zymoseptoria tritici; 50 ppm,0%
same,pest or weed control at 50 ppm,Botrytis cinerea; 50 ppm,70%
"COc1cc(OC)cc(-n2c(-c3ccc(F)cc3Cl)c(C)c(=O)n(C)c2=O)c1 [Compound 39, 6-(2-chloro-4-fluorophenyl)-1-(3,5-dimethoxyphenyl)-3,5-dimethyl-2,4(1H,3H)-pyrimidinedione]",pest or weed control at 50 ppm,[1]; 50 ppm,98%
same,pest or weed control at 50 ppm,[2]; 50 ppm,100%
same,pest or weed control at 50 ppm,Phakopsora pachyrhizi; 50 ppm,73%
same,pest or weed control at 50 ppm,Alternaria solani; 50 ppm,9%
same,pest or weed control at 50 ppm,Zymoseptoria tritici; 50 ppm,0%
same,pest or weed control at 50 ppm,Botrytis cinerea; 50 ppm,90%
COc1cc(OC)cc(-c2ncncc2-c2c(F)cc(F)cc2F)c1 [Compound 40],Test C disease control rating,[1]; 250 ppm,69%
same,Test B disease control rating,[2]; 250 ppm,9%
same,Test D disease control rating,Phakopsora pachyrhizi; 250 ppm,0%
same,Test F disease control rating,Alternaria solani; 250 ppm,0%
same,Test A disease control rating,Zymoseptoria tritici; 250 ppm,0%
same,Test E disease control rating,Botrytis cinerea; 250 ppm,0%
COc1cc(OC)cc(-c2nc(C)ncc2-c2c(F)cc(F)cc2F)c1 [Compound 41],Test C disease control rating,[1]; 250 ppm,91%
same,Test B disease control rating,[2]; 250 ppm,0%
same,Test D disease control rating,Phakopsora pachyrhizi; 250 ppm,0%
same,Test F disease control rating,Alternaria solani; 250 ppm,0%
same,Test A disease control rating,Zymoseptoria tritici; 250 ppm,84%
same,Test E disease control rating,Botrytis cinerea; 250 ppm,17%
"COc1cc(OC)c(Cl)c(-c2nc(C)nc(C)c2-c2ccc(F)cc2Cl)c1 [Compound 42, 4-(2-chloro-3,5-dimethoxyphenyl)-5-(2-chloro-4-fluorophenyl)-2,6-dimethylpyrimidine]",pest or weed control at 250 ppm,[1]; 250 ppm,100%
same,pest or weed control at 250 ppm,[2]; 250 ppm,100%
same,pest or weed control at 250 ppm,Phakopsora pachyrhizi; 250 ppm,100%
same,pest or weed control at 250 ppm,Alternaria solani; 250 ppm,100%
same,pest or weed control at 250 ppm,Zymoseptoria tritici; 250 ppm,96%
same,pest or weed control at 250 ppm,Botrytis cinerea; 250 ppm,99%
Cc1ncnc(-c2ccc(F)cc2Cl)c1-c1ccc(F)cc1Cl [Compound 43],Test C disease control rating,[1]; 250 ppm,0%
same,Test B disease control rating,[2]; 250 ppm,0%
same,Test D disease control rating,Phakopsora pachyrhizi; 250 ppm,78%
same,Test F disease control rating,Alternaria solani; 250 ppm,0%
same,Test A disease control rating,Zymoseptoria tritici; 250 ppm,0%
same,Test E disease control rating,Botrytis cinerea; 250 ppm,0%
